# Experimental data as given in patent publication US10556907B2 (AbbVie Inc., priority 2015, dated 2020).
# Legend:
# [1] = system: monocytes; details: cited from earlier work
# [2] = in vivo; cited from earlier work
# [3] = in vivo; cited from earlier work; remark: listed apart in the source
# [4] = biological target: T1, human EDG8 (S1PR5) receptor (Homo sapiens, UniProt Q9H228); test: Method 2: Aequorin assay, cell clone CHO-A21-EDG8 #12; format: cell-based; details: agonist potency, determined with method 2 (symbols E-G); read-out: S1P5 EC50 range
# T1 construct: expressed in transfected cells; host or cells: CHO (clone CHO-A21-EDG8 #12)
# Protocol: (§1) Agonistic activity was measured using two different methods, described below.
# (§2) Genetically Engineered Cells
# (§3) Cell clone CHO-A21-Edg1 #17 carries the transgenes human EDG1 (S1PR1) receptor (Accession number NP_001391.2), mitochondrially targeted Aequorin (active part corresponds to accession number 1SL8_A) and chimaeric Gaqi5=Gaq modified with the 5 C-terminal amino-acids replaced with those of the Gai protein (DCGLF). CHO-A2-S1P3 Mix is a cell pool ectopically expressing human EDG3 (S1PR3) receptor (Accession number NP_005217.2) mitochondrially targeted Aequorin (active part has a sequence similar to accession number AY601106.1) and GNA16 (Accession number NP_002059.3). Cell clone CHO-A21-EDG8 #12 carries the transgenes human EDG8 (S1PR5) receptor (Accession number NP_110387.1), mitochondrially expressed Aequorin (active part corresponds to accession number 1SL8_A) and chimaeric Gaqi5 (Gaq modified to present the 5 last amino-acids of the Gai protein “DCGLF”; see above). Cells are grown to mid-log phase in culture medium (HAM's F12, 10% FBS, 100 IU/mL penicillin, 100 μg/mL streptomycin, 250 μg/mL Zeocin, 400 μg/mL G418). 18 hours prior to frozen cells preparation, the medium is changed to remove the antibiotics.
# (§4) 18 hours prior to the test, vials of frozen cells are quickly thawed in a 37° C. water bath, cells are recovered by centrifugation and resuspended in assay buffer (DMEM/HAM's F12 with HEPES, without phenol red+0.1% fatty acid-free BSA). Cells are gently agitated in suspension overnight at RT in presence of 5 μM of Coelenterazine h (Molecular Probes). On the day of the test, cells are diluted to their final working concentrations in assay buffer and agitated in suspension for 1 h at RT. Cells are then placed in the luminescence reader (Hamamatsu Functional Drug Screening System 6000, FDSS6000). During cells incubation, compounds are prepared in 100% DMSO, and subsequently diluted in assay buffer. Compounds are then dispensed in the assay plate (black, clear-bottom, 384-well plate). After binding of agonists to the human S1P receptor the intracellular calcium concentration increases and binding of calcium to the Aequorin/Coelenterazine complex leads to an oxidation reaction of coelenterazine, which results in the production of […], coelenteramide, CO2 and light (Dmax 469 nm). The luminescent response is dependent on the agonist concentration. For agonist testing, 30 μL of cell suspension are injected on 30 μL of test compound or reference agonist in the assay plate. The resulting emission of light is recorded for 90 seconds using the FDSS6000. Dose response curves with the reference compounds are performed before testing the compounds. S1P is the reference agonist and JTE-013 the reference antagonist for S1P2. […]
# (§5) Luminescence data are integrated over the reading interval for agonist and antagonist modes. To standardize the emission of recorded light (determination of the “100% signal”) across plates and across different experiments, some of the wells contain 100 μM digitonin or a saturating concentration of ATP (20 μM). Plates also contain the reference agonist at a concentration equivalent to the EC80 obtained during the test validation and the EC100. Dose-response data from test compounds were analyzed with XLfit (IDBS) software using nonlinear regression applied to a sigmoidal dose-response model and the following equation: • XL Fit fit Model 203: 4 Parameter Logistic Model • A: Bottom • B: TOP • C: LogEC50 • D: Hill fit=(A+((B−A)/(1+(((10^C)/x)^D)))) inv=((10^C)/((((B−A)/(y−A))−1)^(1/D))) res=(y−fit)
# [5] = biological target: T2, human EDG1 (S1PR1) receptor (Homo sapiens, UniProt P21453); test: Method 2: Aequorin assay, cell clone CHO-A21-Edg1 #17; format: cell-based; details: (2): determined with method 2; read-out: S1P1 EC50
# T2 construct: expressed in transfected cells; host or cells: CHO (clone CHO-A21-Edg1 #17)
# Protocol: as §1, §2, §3, §4, §5
# [6] = biological target: T3, human EDG3 (S1PR3) receptor (Homo sapiens, UniProt Q99500); test: Method 2: Aequorin assay, cell pool CHO-A2-S1P3 Mix; format: cell-based; details: (2): determined with method 2
# T3 construct: expressed in transfected cells; host or cells: CHO (cell pool CHO-A2-S1P3 Mix)
# Protocol: as §1, §2, §3, §4, §5
# [7] = biological target: T4, human S1PR4 receptor (Homo sapiens, UniProt O95977); test: Method 1: intracellular Ca2+ release (FLIPR, Calcium 5) in recombinant CHO-K1 cells; format: cell-based; details: (1): determined with method 1; read-out: S1P4 EC50
# T4 construct: host or cells: CHO-K1
# T4 sequence (O95977 1-384): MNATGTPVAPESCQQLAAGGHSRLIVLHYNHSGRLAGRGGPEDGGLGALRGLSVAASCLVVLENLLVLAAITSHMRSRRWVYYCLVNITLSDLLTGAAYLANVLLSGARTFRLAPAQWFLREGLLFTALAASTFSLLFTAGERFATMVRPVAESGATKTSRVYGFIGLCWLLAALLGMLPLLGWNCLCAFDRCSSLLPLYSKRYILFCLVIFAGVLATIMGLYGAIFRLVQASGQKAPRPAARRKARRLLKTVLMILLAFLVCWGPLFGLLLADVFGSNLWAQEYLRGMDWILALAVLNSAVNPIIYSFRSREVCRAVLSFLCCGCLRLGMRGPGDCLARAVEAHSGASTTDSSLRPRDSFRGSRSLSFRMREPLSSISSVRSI
# Procedure, shortened: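 CHO-K1 cells co-expressing the receptor, aequorin and Gq/i5 were loaded with Calcium 5 dye for 1 h at 37 °C, adapted 45 min to RT, then given serially diluted compound in HBSS/20 mmol/L Hepes/2.5 mmol/L probenecid/0.1% BSA, pH 7.4. FLIPR fluorescence was read; EC50 came from nonlinear fits normalized to phospho-fingolimod.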
# T1 sequence (Q9H228 whole entry): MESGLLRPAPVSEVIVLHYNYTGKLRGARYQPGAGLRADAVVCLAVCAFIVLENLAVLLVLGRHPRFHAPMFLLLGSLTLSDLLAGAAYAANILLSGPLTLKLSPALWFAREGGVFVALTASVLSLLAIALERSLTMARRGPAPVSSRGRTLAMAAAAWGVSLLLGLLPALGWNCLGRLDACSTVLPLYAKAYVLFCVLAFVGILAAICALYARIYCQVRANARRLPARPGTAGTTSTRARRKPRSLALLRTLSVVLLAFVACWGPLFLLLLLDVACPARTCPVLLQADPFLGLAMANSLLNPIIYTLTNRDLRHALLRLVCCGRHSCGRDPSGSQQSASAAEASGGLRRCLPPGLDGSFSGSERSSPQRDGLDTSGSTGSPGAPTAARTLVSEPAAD
# T2 sequence (P21453 whole entry): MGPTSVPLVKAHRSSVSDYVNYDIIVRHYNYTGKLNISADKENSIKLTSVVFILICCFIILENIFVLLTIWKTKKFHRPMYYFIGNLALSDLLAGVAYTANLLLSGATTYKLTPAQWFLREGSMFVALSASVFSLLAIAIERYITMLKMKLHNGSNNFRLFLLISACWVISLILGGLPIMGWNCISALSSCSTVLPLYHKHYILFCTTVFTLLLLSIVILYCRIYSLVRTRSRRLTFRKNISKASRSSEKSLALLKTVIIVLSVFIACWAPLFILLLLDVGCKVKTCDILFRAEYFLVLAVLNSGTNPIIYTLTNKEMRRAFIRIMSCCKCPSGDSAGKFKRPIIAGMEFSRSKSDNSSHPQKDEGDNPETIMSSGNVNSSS
# T3 sequence (Q99500 whole entry): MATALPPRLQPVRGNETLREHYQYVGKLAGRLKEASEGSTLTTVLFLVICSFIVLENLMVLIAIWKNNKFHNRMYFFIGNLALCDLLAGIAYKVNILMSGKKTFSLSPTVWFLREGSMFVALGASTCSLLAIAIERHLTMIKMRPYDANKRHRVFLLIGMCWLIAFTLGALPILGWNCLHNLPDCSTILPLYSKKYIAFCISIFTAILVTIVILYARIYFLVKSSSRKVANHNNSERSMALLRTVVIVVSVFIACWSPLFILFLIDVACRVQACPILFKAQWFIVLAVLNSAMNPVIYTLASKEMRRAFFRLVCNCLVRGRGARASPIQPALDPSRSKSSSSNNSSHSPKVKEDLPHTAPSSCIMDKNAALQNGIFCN
EC50 [4],EC50 [5],EC50 [6],EC50 [7],Structure (SMILES),Aβ-induced migration of monocytes to sites of injury [1],Aβ-induced memory deficits [2],nociceptive behavior in neuropathic pain models [3]
–,–,–,–,CCCCCCCCc1ccc(CCC(N)(CO)CO)cc1 [FTY720/FIngolimod],inhibits such migration,able to modulate Aβ-induced memory deficits,able to reduce nociceptive behavior
–,–,–,–,FC(F)(F)c1cccc(-c2noc(-c3cc(-c4ccccc4)c(C(F)(F)F)s3)n2)c1 [SEW2817],–,–,fails to have an effect
100 to 1000 nM,> 1000 nM,> 1000 nM,–,"O=C(O)CCN1CCc2nc(-c3ccc(OCc4ccccc4)cc3)ccc2C1 [Compound 129, 3-(2-(4-(benzyloxy)phenyl)-7,8-dihydro-1,6-naphthyridin-6(5H)-yl)propanoic acid]",–,–,–
100 to 1000 nM,> 1000 nM,> 1000 nM,–,"O=C(O)CCN1CCc2nc(-c3ccc(OCc4c(Cl)cccc4Cl)cc3)ncc2C1 [Compound 70, 3-(2-(4-((2,6-dichlorobenzyl)oxy)phenyl)-7,8-dihydropyrido[4,3-d]pyrimidin-6(5H)-yl)propanoic acid]",–,–,–
1000 to 10000 nM,> 1000 nM,> 1000 nM,> 1000 nM,"O=C(O)C1CC(N2CCc3nc(-c4ccc(OCc5cccc(F)c5)cc4)ncc3C2)C1 (centres unmarked) [Compound 52, 3-(2-(4-((3-fluorobenzyl)oxy)phenyl)-7,8-dihydropyrido[4,3-d]pyrimidin-6(5H)-yl)cyclobutanecarboxylic acid]",–,–,–
100 to 1000 nM,> 1000 nM,> 1000 nM,–,"CC(CN1CCc2cc(-c3ccc(OCc4ccccc4)cc3)nnc2C1)C(=O)O (centres unmarked) [Compound 206, 3-(3-(4-(benzyloxy)phenyl)-5,6-dihydropyrido[3,4-c]pyridazin-7(8H)-yl)-2-methylpropanoic acid]",–,–,–
< 100 nM,> 1000 nM,> 1000 nM,–,"O=C(O)CCN1CCc2nc(-c3ccc(OCc4ccccc4)cc3F)ccc2C1 [Compound 134, 3-(2-(4-(benzyloxy)-2-fluorophenyl)-7,8-dihydro-1,6-naphthyridin-6(5H)-yl)propanoic acid]",–,–,–
100 to 1000 nM,> 1000 nM,> 1000 nM,–,"CC(CN1CCc2nc(-c3ccc(OCc4cc(F)cc(F)c4)cc3)ncc2C1)C(=O)O (centres unmarked) [Compound 9, 3-(2-(4-((3,5-difluorobenzyl)oxy)phenyl)-7,8-dihydropyrido[4,3-d]pyrimidin-6(5H)-yl)-2-methylpropanoic acid]",–,–,–
< 100 nM,> 1000 nM,> 1000 nM,–,"O=C(O)CCN1CCc2nc(-c3ccc(OCc4ccccc4F)cc3)ccc2C1 [Compound 132, 3-(2-(4-((2-fluorobenzyl)oxy)phenyl)-7,8-dihydro-1,6-naphthyridin-6(5H)-yl)propanoic acid]",–,–,–
100 to 1000 nM,> 1000 nM,> 1000 nM,–,"CC(CN1CCc2nc(-c3ccc(OCc4ccccc4)cc3)ncc2C1)C(=O)O (centres unmarked) [Compound 6, 3-(2-(4-(benzyloxy)phenyl)-7,8-dihydropyrido[4,3-d]pyrimidin-6(5H)-yl)-2-methylpropanoic acid]",–,–,–
1000 to 10000 nM,> 1000 nM,> 1000 nM,–,"Cc1cc(OCc2ccccc2)ccc1-c1ccc2c(n1)CCN(CCC(=O)O)C2 [Compound 135, 3-(2-(4-(benzyloxy)-2-methylphenyl)-7,8-dihydro-1,6-naphthyridin-6(5H)-yl)propanoic acid]",–,–,–
100 to 1000 nM,> 1000 nM,> 1000 nM,–,"O=C(O)CCN1CCc2nc(-c3ccc(OCc4ccccc4)c(Cl)c3)ccc2C1 [Compound 144, 3-(2-(4-(benzyloxy)-3-chlorophenyl)-7,8-dihydro-1,6-naphthyridin-6(5H)-yl)propanoic acid]",–,–,–
100 to 1000 nM,> 1000 nM,> 1000 nM,–,"CC(CN1CCc2nc(-c3ccc(OCc4ccccc4)cc3)ccc2C1)C(=O)O (centres unmarked) [Compound 101, 3-(2-(4-(benzyloxy)phenyl)-7,8-dihydro-1,6-naphthyridin-6(5H)-yl)-2-methylpropanoic acid]",–,–,–
100 to 1000 nM,> 1000 nM,> 1000 nM,–,"O=C(O)CCN1CCc2nc(-c3ccc(OCc4c(Cl)cccc4Cl)cc3)ccc2C1 [Compound 130, 3-(2-(4-((2,6-dichlorobenzyl)oxy)phenyl)-7,8-dihydro-1,6-naphthyridin-6(5H)-yl)propanoic acid]",–,–,–
